In patent US20230271980A1, “PREPARATION AND APPLICATION OF TRICYCLIC PYRIMIDINONE COMPOUND AND ITS COMPOSITION” (NEUSCO BIOTECH LIMITED, priority 2020, published 2023):

How the values were obtained:
[1] = biological target: T1, Lp-PLA2 enzyme in human plasma (Homo sapiens, UniProt Q13093); test: Human plasma Lp-PLA2 assay (Thio-PAF assay); assay type: biochemical; conditions: mixed human plasma; 2-thio-PAF substrate with CPM; 30 min pre-incubation; fluorescence ex 380/em 485; read-out: Thio-PAF (pIC50) (converted)
T1 construct: from tissue; host or cells: pooled (mixed) human plasma
T1 sequence (Q13093 22-441): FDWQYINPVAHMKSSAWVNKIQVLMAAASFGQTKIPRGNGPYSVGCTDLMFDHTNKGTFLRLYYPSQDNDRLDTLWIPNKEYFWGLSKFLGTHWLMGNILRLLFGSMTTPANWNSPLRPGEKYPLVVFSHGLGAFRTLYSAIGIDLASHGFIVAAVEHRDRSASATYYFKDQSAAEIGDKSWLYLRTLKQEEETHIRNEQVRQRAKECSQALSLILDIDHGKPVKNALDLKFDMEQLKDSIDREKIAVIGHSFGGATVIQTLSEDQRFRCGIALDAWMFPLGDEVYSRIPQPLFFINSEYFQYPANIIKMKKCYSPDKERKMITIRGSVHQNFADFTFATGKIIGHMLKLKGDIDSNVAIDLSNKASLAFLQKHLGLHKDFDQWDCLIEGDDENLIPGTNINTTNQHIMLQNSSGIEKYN
Experimental: (2) Human Plasma Lp-PLA2 Assay (Also Known as Thio-PAF Assay)
The human plasma assay was conducted using the sulphatide analog of PAF (phosphatidylcholine), which is hydrolyzed to produce phospholipids containing free sulfhydryl groups, subjected to Michael addition with CPM to generate fluorescence-enhancing maleimide.
Continuous quantitative analysis of thiol could be conducted by detecting the fluorescence intensity. This assay can be used to detect the inhibitory activity of the Lp-PLA2 inhibitor on the Lp-PLA2 enzyme in human plasma.
Assay Method: The compound to be tested (as shown in Table 2) was mixed with a DMSO solution in a volume ratio of (1:3), and diluted to prepare a source plate of a 384-well microplate. Then 0.01 μl of the compound was transferred via an ECHO liquid dispenser from the source plate to a 384-well Greiner 784076 low-volume plate, and 8 μl of pre-aliquoted and frozen mixed human plasma was added. The plate was centrifuged at 500 rpm for 10 seconds. After a 30 min pre-incubation, 2 μl of a substrate solution, and containing 2.5 mM 2-thio-PAF (a solution in ethanol), 32 μM CPM (a solution in DMSO) and a buffer of 3.2 mM N-ethylmaleimide (NEM) (a buffer solution consisting of 50 mM HEPES, pH7.4, 150 mM NaCl, 1 mM CHAPS) was added by a BRAVO liquid handling station to a 384-well Greiner 784076 low-volume plate. After 2 min, the reaction was quenched with 5 μl of 5% trifluoroacetic acid. After the plate was incubated at room temperature for 40 min in a dark place, the fluorescence intensity was read at ex 380/em 485 with an Envision microplate reader, and the XL fitting model in Excel was used to perform the curve analysis and QC analysis to calculate pIC50.

[2] = biological target: T2, Recombinant human Lp-PLA2 (Homo sapiens, UniProt Q13093); test: Recombinant human Lp-PLA2 (rhLp-PLA2) assay (PED6 assay); assay type: biochemical; conditions: PED6 substrate; recombinant human Lp-PLA2 enzyme at 4 nM or 110 pM; 30 min pre-incubation; fluorescence ex 480/em 540; read-out: rhLp-PLA2 (pIC50) (converted)
T2 sequence (Q13093 22-441): T1 sequence (Q13093 22-441)
From the text: (1) Recombinant Human Lp-PLA2 (rhLp-PLA2) Assay (Also Known as PED6 Assay)
PED6 is a fluorescently labeled phospholipid that can be purchased directly from Invitogene or Molecular Probes. There is a fluorescence-quenching p-nitrophenyl group on the Sn3 position, and a Bodipy fluorescein (FL) group on the sn2 position. Once it is cleaved by the Lp-PLA2 enzyme, the FL group is released, resulting in enhanced fluorescence.
Assay method: The compound to be tested (as shown in Table 1) was mixed with DMSO solution at a volume ratio of 1:3, diluted to prepare a source plate of a 384-well microplate. Then 0.01 μl of the compound was transferred via an ECHO liquid dispenser from the source plate to a 384-well Greiner 784076 plate, and 5 microliters of a buffer composed of 50 mM HEPES, pH7.4, 150 mM NaCl, 1 mM CHAPS (the buffer solution contains Recombinant human Lp-PLA2 enzyme at a concentration of 4 nM or 110 pM) was added to each well on the plate. The plate was centrifuged at 500 rpm for 10 seconds. After 30 minutes of pre-incubation, 5 microliters of the above buffer solution was added to a 384-well Greiner784076 plate, and the plate was centrifuged at 500 rpm for 10 seconds.

Compound	IC50 [1] [nM]	IC50 [2] [nM]
O=c1nc(OCc2cc(F)c(Oc3ccnc(C(F)(F)F)c3)c(F)c2)c2c3n1CCN3CCO2 [Compound 4]	12.6	0.126
O=c1nc(OCc2cc(F)c(Oc3ccc(C(F)(F)F)nc3)c(F)c2)c2c3n1CCN3CCO2 [Compound 5]	20	0.2
O=c1nc(OCc2cc(F)c(Oc3ccc(C(F)(F)F)cc3)c(F)c2)c2c3n1CCN3CCO2 [Compound 9]	10	0.158
O=c1nc(OCc2cc(F)c(Oc3cccc(OC(F)(F)F)c3)c(F)c2)c2c3n1CCN3CCO2 [Compound 10]	15.8	0.2
O=c1nc(OCc2cc(F)c(Oc3ccc(C(F)(F)F)c(Cl)c3)c(F)c2)c2c3n1CCN3CCO2 [Compound 11]	10	0.1
O=c1nc(OCc2cc(F)c(Oc3ccc(OC(F)(F)F)c(Cl)c3)c(F)c2)c2c3n1CCN3CCO2 [Compound 12]	15.8	0.0794
O=c1nc(OCc2cc(F)c(Oc3ccc(Cl)c(C(F)(F)F)c3)c(F)c2)c2c3n1CCN3CCO2 [Compound 13]	12.6	0.158
Cc1cc(Oc2c(F)cc(COc3nc(=O)n4c5c3OCCN5CC4)cc2F)ccc1Cl [Compound 14]	15.8	0.2
O=c1nc(OCc2cc(F)c(Oc3ccnc(C(F)(F)F)c3)c(F)c2)c2c3n1CCCN3CCO2 [Compound 15]	7.94	0.0631
O=c1nc(OCc2cc(F)c(Oc3ccc(C(F)(F)F)nc3)c(F)c2)c2c3n1CCCN3CCO2 [Compound 16]	10	0.0794
Cc1ccc(Oc2c(F)cc(COc3nc(=O)n4c5c3OCCN5CCC4)cc2F)cn1 [Compound 17]	7.94	0.0501

More lines, now with the values ahead:

IC50 [1] [nM]	IC50 [2] [nM]	Compound
316	15.8	O=c1nc(OCc2cc(F)c(F)cc2F)c2c3n1CCN3CCO2 [Compound 1]
158	10	O=c1nc(OCc2cccc(F)c2F)c2c3n1CCN3CCO2 [Compound 2]
50.1	3.16	O=c1nc(OCc2cc(F)c(F)c(F)c2)c2c3n1CCN3CCO2 [Compound 3]
15.8	0.158	Cc1cc(Oc2c(F)cc(COc3nc(=O)n4c5c3OCCN5CC4)cc2F)ccn1 [Compound 6]
20	0.251	Cc1ccc(Oc2c(F)cc(COc3nc(=O)n4c5c3OCCN5CC4)cc2F)cn1 [Compound 7]
39.8	1	Cc1ncc(Oc2c(F)cc(COc3nc(=O)n4c5c3OCCN5CC4)cc2F)cn1 [Compound 8]
126	10	O=c1nc(OCc2cccc(F)c2F)c2c3n1CCCN3CCO2 [Compound 18]
63.1	3.98	O=c1nc(OCc2cc(F)c(F)c(F)c2)c2c3n1CCCN3CCO2 [Compound 19]
